Measurements from ChEMBL document CHEMBL1129835, “Selective cytotoxicity of certain 9-substituted ellipticines for leukemia cells in a variety of leukemia cell cultures” (1997).

Key:
MOLT-4 [1] = experiment: Cytotoxicity exhibited by the compound for total growth inhibition of leukemia MOLT-4 cell line; format: functional; conditions: Homo sapiens
HL-60 [2] = experiment: Effective dose to show cytotoxicity against leukemia HL-60 (TB) cell line was determined; format: functional; conditions: Homo sapiens, read-out: ED50 (the source's name)
DU-145 [3] = experiment: Effective dose to show cytotoxicity against prostate cancer DU-145 cell line was determined; format: functional; conditions: Homo sapiens, read-out: ED50 (the source's name)
HCT-116 [4] = experiment: The compound was evaluated for cytotoxicity against HCT116 colon cancer cell line; format: functional; conditions: Homo sapiens
NCI-H322M [5] = experiment: Cytotoxicity exhibited by the compound for total growth inhibition of non-small cell lung cancer NCI-H322M cell line; format: functional; conditions: Homo sapiens
K562 [6] = experiment: Effective dose to show cytotoxicity against leukemia K-562 cell line was determined; format: functional; conditions: Homo sapiens, read-out: ED50 (the source's name)
LOX IMVI [7] = experiment: The compound was evaluated for cytotoxicity against LOX-IMVI melanoma cell line; format: functional; conditions: Homo sapiens
CCRF-CEM = experiment: Effective dose to show cytotoxicity against leukemia CCRF-CEM cell line was determined; format: functional; conditions: Homo sapiens, read-out: ED50 (the source's name)
NCI-H322M [8] = experiment: Concentration for 50% cell kill against non-small cell lung cancer NCI-H322M cell line was determined; format: functional; conditions: Homo sapiens, read-out: LC50 (the source's name)
PC-3 [9] = experiment: Concentration for 50% cell kill against prostate cancerPC-3 cell line was determined; format: functional; conditions: Homo sapiens, read-out: LC50 (the source's name)
M14 [10] = experiment: Concentration for 50% cell kill against melanoma M14 cell line was determined; format: functional; conditions: Homo sapiens, read-out: LC50 (the source's name)
U-251 = experiment: Concentration for 50% cell kill against CNS cancer U251 cell line was determined; format: functional; conditions: Homo sapiens, read-out: LC50 (the source's name)
RXF 393 [11] = experiment: Effective dose to show cytotoxicity against renal cancer RXF 393 cell line was determined; format: functional; conditions: Homo sapiens, read-out: ED50 (the source's name)
OVCAR-3 = experiment: Cytotoxicity exhibited by the compound for total growth inhibition of ovarian cancer OVCAR-3 cell line; format: functional; conditions: Homo sapiens
OVCAR-8 [12] = experiment: Effective dose to show cytotoxicity against ovarian cancer OVCAR-8 cell line was determined; format: functional; conditions: Homo sapiens, read-out: ED50 (the source's name)
T47D = experiment: Concentration for 50% cell kill against breast cancer T-47D cell line was determined; format: functional; conditions: Homo sapiens, read-out: LC50 (the source's name)
SNB-19 = experiment: Cytotoxicity exhibited by the compound for total growth inhibition of CNS cancer SNB-19 cell line; format: functional; conditions: Homo sapiens
OVCAR-8 [13] = experiment: Concentration for 50% cell kill against ovarian cancerOVCAR-8 cell line was determined; format: functional; conditions: Homo sapiens, read-out: LC50 (the source's name)
KM12 = experiment: Effective dose to show cytotoxicity against colon cancer KM-12 cell line was determined; format: functional; conditions: Homo sapiens, read-out: ED50 (the source's name)
IGROV-1 = experiment: Effective dose to show cytotoxicity against ovarian cancer IGROV 1 cell line was determined; format: functional; conditions: Homo sapiens, read-out: ED50 (the source's name)
PC-3 [14] = experiment: Cytotoxicity exhibited by the compound for total growth inhibition of prostate cancer PC-3 cell line; format: functional; conditions: Homo sapiens
HCT-116 [15] = experiment: Effective dose to show cytotoxicity against colon cancer HCT116 cell line was determined; format: functional; conditions: Homo sapiens, read-out: ED50 (the source's name)
SNB-75 [16] = experiment: Cytotoxicity exhibited by the compound for total growth inhibition of CNS cancer SNB-75 cell line; format: functional; conditions: Homo sapiens
SR = experiment: Cytotoxicity exhibited by the compound for total growth inhibition of leukemia SR cell line; format: functional; conditions: Homo sapiens
HL-60 [17] = experiment: Cytotoxicity exhibited by the compound for total growth inhibition of leukemia HL-60 (TB) cell line; format: functional; conditions: Homo sapiens
NCI-H522 = experiment: Cytotoxicity exhibited by the compound for total growth inhibition of non-small cell lung cancer NCI-H522 cell line; format: functional; conditions: Homo sapiens
COLO 205 = experiment: Cytotoxicity exhibited by the compound for total growth inhibition of colon cancer COLO 205 cell line; format: functional; conditions: Homo sapiens
CAKI-1 [18] = experiment: The compound was evaluated for cytotoxicity against CAKI-1 renal cancer cell line; format: functional; conditions: Homo sapiens
MOLT-4 [19] = experiment: The compound was evaluated for cytotoxicity against MOLT-4 leukemia cell line; format: functional; conditions: Homo sapiens
DU-145 [20] = experiment: Concentration for 50% cell kill against prostate cancerDU-145 cell line was determined; format: functional; conditions: Homo sapiens, read-out: LC50 (the source's name)
M14 [21] = experiment: Cytotoxicity exhibited by the compound for total growth inhibition of melanoma M14 cell line; format: functional; conditions: Homo sapiens
CAKI-1 [22] = experiment: Concentration for 50% cell kill against renal cancerCAKI-1 cell line was determined; format: functional; conditions: Homo sapiens, read-out: LC50 (the source's name)
HCT-116 [23] = experiment: Concentration for 50% cell kill against colon cancer HCT116 cell line was determined; format: functional; conditions: Homo sapiens, read-out: LC50 (the source's name)
Malme-3M = experiment: Concentration for 50% cell kill against melanoma MALME-3M cell line was determined; format: functional; conditions: Homo sapiens, read-out: LC50 (the source's name)
RXF 393 [24] = experiment: Concentration for 50% cell kill against renal cancer RXF 393 cell line was determined; format: functional; conditions: Homo sapiens, read-out: LC50 (the source's name)
HL-60 [25] = experiment: Concentration for 50% cell kill against leukemia HL-60 (TB) cell line was determined; format: functional; conditions: Homo sapiens, read-out: LC50 (the source's name)
CAKI-1 [26] = experiment: Cytotoxicity exhibited by the compound for total growth inhibition of renal cancer CAKI-1 cell line; format: functional; conditions: Homo sapiens
SNB-75 [27] = experiment: Effective dose to show cytotoxicity against CNS cancer SNB-75 cell line was determined; format: functional; conditions: Homo sapiens, read-out: ED50 (the source's name)
SN12C [28] = experiment: Effective dose to show cytotoxicity against renal cancer SN12C cell line was determined; format: functional; conditions: Homo sapiens, read-out: ED50 (the source's name)
M14 [29] = experiment: Effective dose to show cytotoxicity against melanoma M14 cell line was determined; format: functional; conditions: Homo sapiens, read-out: ED50 (the source's name)
K562 [30] = experiment: Cytotoxicity exhibited by the compound for total growth inhibition of leukemia K-562 cell line; format: functional; conditions: Homo sapiens
LOX IMVI [31] = experiment: Concentration for 50% cell kill against melanoma LOX IMVI cell line was determined; format: functional; conditions: Homo sapiens, read-out: LC50 (the source's name)
K562 [32] = experiment: Concentration for 50% cell kill against leukemia K-562 cell line was determined; format: functional; conditions: Homo sapiens, read-out: LC50 (the source's name)
RPMI-8226 [33] = experiment: Concentration for 50% cell kill against leukemia RPMI-8226 cell line was determined; format: functional; conditions: Homo sapiens, read-out: LC50 (the source's name)
[34] = system: MDA-MB-435 (Homo sapiens); experiment: Cytotoxicity exhibited by the compound for total growth inhibition of breast cancer MDA-MB-435 cell line
RPMI-8226 [35] = experiment: Cytotoxicity exhibited by the compound for total growth inhibition of leukemia RPMI-8226 cell line; format: functional; conditions: Homo sapiens
SN12C [36] = experiment: Cytotoxicity exhibited by the compound for total growth inhibition of renal cancer SN12C cell line; format: functional; conditions: Homo sapiens

Question: For `Cc1c2ccncc2c(C)c2c1[nH]c1ccc(CO)cc12`, which TGI (MOLT-4 [1]) is on record?
Answer: 0.04 µM

Question: What about the EC50 (HL-60 [2]) of the same compound?
Answer: 0.02 µM

Question: What about the EC50 (DU-145 [3]) of the same compound?
Answer: 1.29 µM

Question: And the GI50 (HCT-116 [4])?
Answer: 0.05 µM

Question: What about the TGI (NCI-H322M [5]) of the same compound?
Answer: 11.5 µM

Question: And the EC50 (K562 [6])?
Answer: 0.03 µM

Question: What about the GI50 (LOX IMVI [7]) of the same compound?
Answer: 0.37 µM

Question: And the EC50 (CCRF-CEM)?
Answer: 0.06 µM

Question: And the CC50 (NCI-H322M [8])?
Answer: 35.3 µM

Question: And the CC50 (PC-3 [9])?
Answer: 23.3 µM

Question: And the CC50 (M14 [10])?
Answer: 34.1 µM

Question: What about the CC50 (U-251) of the same compound?
Answer: > 100 µM

Question: What about the EC50 (RXF 393 [11]) of the same compound?
Answer: 1.61 µM

Question: What about the TGI (OVCAR-3) of the same compound?
Answer: 52.1 µM

Question: And the EC50 (OVCAR-8 [12])?
Answer: 0.42 µM

Question: And the CC50 (T47D)?
Answer: 78.2 µM

Question: And the TGI (SNB-19)?
Answer: 11.5 µM

Question: What about the CC50 (OVCAR-8 [13]) of the same compound?
Answer: 55.2 µM

Question: What about the EC50 (KM12) of the same compound?
Answer: 0.16 µM

Question: And the EC50 (IGROV-1)?
Answer: 0.18 µM

Question: What about the TGI (PC-3 [14]) of the same compound?
Answer: 3.6 µM

Question: And the EC50 (HCT-116 [15])?
Answer: 0.05 µM

Question: What about the TGI (SNB-75 [16]) of the same compound?
Answer: 2.63 µM

Question: And the TGI (SR)?
Answer: 0.49 µM

Question: And the TGI (HL-60 [17])?
Answer: 0.11 µM

Question: What about the TGI (NCI-H522) of the same compound?
Answer: 2.95 µM

Question: And the TGI (COLO 205)?
Answer: 2.2 µM

Question: What about the GI50 (CAKI-1 [18]) of the same compound?
Answer: 0.37 µM

Question: And the GI50 (MOLT-4 [19])?
Answer: 0.01 µM

Question: What about the CC50 (DU-145 [20]) of the same compound?
Answer: 35 µM

Question: And the TGI (M14 [21])?
Answer: 3.65 µM

Question: And the CC50 (CAKI-1 [22])?
Answer: 52.6 µM

Question: And the CC50 (HCT-116 [23])?
Answer: > 100 µM

Question: What about the CC50 (Malme-3M) of the same compound?
Answer: 0.82 µM

Question: And the CC50 (RXF 393 [24])?
Answer: 9.43 µM

Question: What about the CC50 (HL-60 [25]) of the same compound?
Answer: 0.9 µM

Question: And the TGI (CAKI-1 [26])?
Answer: 13.4 µM

Question: What about the EC50 (SNB-75 [27]) of the same compound?
Answer: 0.49 µM

Question: And the EC50 (SN12C [28])?
Answer: 0.22 µM

Question: What about the EC50 (M14 [29]) of the same compound?
Answer: 0.6 µM

Question: What about the TGI (K562 [30]) of the same compound?
Answer: 0.11 µM

Question: And the CC50 (LOX IMVI [31])?
Answer: > 100 µM

Question: And the CC50 (K562 [32])?
Answer: > 100 µM

Question: What about the CC50 (RPMI-8226 [33]) of the same compound?
Answer: 5.57 µM

Question: What about the TGI [34] of the same compound?
Answer: 1.61 µM

Question: And the TGI (RPMI-8226 [35])?
Answer: 0.22 µM

Question: And the TGI (SN12C [36])?
Answer: 3.47 µM
